Measured values: patent publication US20220144839A1, “INDOLE AHR INHIBITORS AND USES THEREOF” (Ikena Oncology, Inc., priority 2018, published 2022)

Target: T1, AHR (UniProt P35869)
T1 sequence (P35869 1-848): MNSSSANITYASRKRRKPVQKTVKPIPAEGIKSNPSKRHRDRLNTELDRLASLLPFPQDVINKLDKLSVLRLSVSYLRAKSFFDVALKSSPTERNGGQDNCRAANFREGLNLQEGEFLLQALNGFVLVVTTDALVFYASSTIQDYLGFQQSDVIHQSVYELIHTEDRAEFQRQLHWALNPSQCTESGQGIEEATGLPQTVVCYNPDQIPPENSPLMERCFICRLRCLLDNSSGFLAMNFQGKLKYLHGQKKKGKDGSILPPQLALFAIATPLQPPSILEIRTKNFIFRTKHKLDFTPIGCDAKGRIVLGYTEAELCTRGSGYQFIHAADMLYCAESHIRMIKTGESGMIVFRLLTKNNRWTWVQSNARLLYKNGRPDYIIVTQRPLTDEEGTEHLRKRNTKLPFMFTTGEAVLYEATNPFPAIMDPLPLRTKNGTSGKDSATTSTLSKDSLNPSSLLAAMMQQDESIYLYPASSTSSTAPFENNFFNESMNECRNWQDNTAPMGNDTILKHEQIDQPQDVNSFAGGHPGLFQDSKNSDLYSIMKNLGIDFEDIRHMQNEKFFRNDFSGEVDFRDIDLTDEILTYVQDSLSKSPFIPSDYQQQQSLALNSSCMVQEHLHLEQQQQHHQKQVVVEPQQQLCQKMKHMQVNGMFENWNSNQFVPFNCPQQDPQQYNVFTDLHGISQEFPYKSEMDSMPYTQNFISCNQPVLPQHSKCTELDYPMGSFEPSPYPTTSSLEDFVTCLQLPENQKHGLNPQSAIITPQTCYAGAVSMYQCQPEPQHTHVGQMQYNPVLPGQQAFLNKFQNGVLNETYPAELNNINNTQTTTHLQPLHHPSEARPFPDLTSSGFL
Experiment: DRE-Luciferase Reporter Assay (Alternate Method), Example 1B
Assay type: cell-based
Conditions: concentration which inhibits half of the luciferase activity induced by AHR activating ligand; DRE-luciferase reporter cell line
Outline: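 Murine (Hepa1-6, Hepa-1c1c7) or human (HepG2) cells carrying a stable or transient DRE-luciferase reporter, stimulated with an AHR agonist (e.g. TCDD, kynurenine, ITE, BNF, FICZ) plus compound at plating or after overnight culture at 37 °C. Luciferase read after 4, 15 or 24 h; IC50 as concentration halving agonist-only signal relative to no-ligand baseline.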

Row | IC50 [µM] | SMILES
1 | < 0.5 | C[C@H](NC(=O)N1CCOCC1)c1cnn2c(N[C@@H]3CCc4[nH]c5ccccc5c4C3)nc(-c3cncc(F)c3)nc12 [Compound I-56a, N-[(1S)-1-[2-(5-Fluoro-3-pyridyl)-4-[[(3R)-2,3,4,9-tetrahydro-1H-carbazol-3-yl]amino]pyrazolo[1,5-a][1,3,5]triazin-8-yl]ethyl]morpholine-4-carboxamide]
2 | < 0.5 | C[C@@H](NC(=O)N1CCOCC1)c1cnn2c(N[C@@H]3CCc4[nH]c5ccccc5c4C3)nc(-c3cncc(F)c3)nc12 [Compound I-56b, N-[(1R)-1-[2-(5-Fluoro-3-pyridyl)-4-[[(3R)-2,3,4,9-tetrahydro-1H-carbazol-3-yl]amino]pyrazolo[1,5-a][1,3,5]triazin-8-yl]ethyl]morpholine-4-carboxamide]
3 | < 0.5 | CC(C)c1cnn2c(NCCc3cccnc3N)nc(-c3cncc(F)c3)nc12 [Compound I-58, N-[2-(2-Amino-3-pyridyl)ethyl]-2-(5-fluoro-3-pyridyl)-8-isopropyl-pyrazolo[1,5-a][1,3,5]triazin-4-amine]
4 | < 0.5 | [2H]C([2H])([2H])C(c1cnn2c(N[C@@H]3CCc4[nH]c5ccccc5c4C3)nc(-c3cncc(F)c3)nc12)C([2H])([2H])[2H] [Compound I-59, (3R)—N-[2-(5-Fluoro-3-pyridyl)-8-[2,2,2-trideuterio-1-(trideuteriomethyl)ethyl]pyrazolo[1,5-a][1,3,5]triazin-4-yl]-2,3,4,9-tetrahydro-1H-carbazol-3-amine]
5 | > 1.5 | CC(C)c1cnn2c(N[C@H]3CNc4ncncc4C3)nc(-c3cncc(F)c3)nc12 [Compound I-60a, (6R)—N-[2-(5-Fluoro-3-pyridyl)-8-isopropyl-pyrazolo[1,5-a][1,3,5]triazin-4-yl]-5,6,7,8-tetrahydropyrido[2,3-d]pyrimidin-6-amine]
6 | < 0.5 | CC(C)c1cnn2c(N[C@@H]3CNc4ncncc4C3)nc(-c3cncc(F)c3)nc12 [Compound I-60b, (6S)—N-[2-(5-fluoro-3-pyridyl)-8-isopropyl-pyrazolo[1,5-a][1,3,5]triazin-4-yl]-5,6,7,8-tetrahydropyrido[2,3-d]pyrimidin-6-amine]
7 | < 0.5 | C[C@H](NC(=O)N1CCN(C)CC1)c1cnn2c(N[C@@H]3CCc4[nH]c5ccccc5c4C3)nc(-c3cncc(F)c3)nc12 [Compound I-61a, N-[(1S)-1-[2-(5-Fluoro-3-pyridyl)-4-[[(3R)-2,3,4,9-tetrahydro-1H-carbazol-3-yl]amino]pyrazolo[1,5-a][1,3,5]triazin-8-yl]ethyl]-4-methyl-piperazine-1-carboxamide]
8 | 0.5 to 1 | C[C@@H](NC(=O)N1CCN(C)CC1)c1cnn2c(N[C@@H]3CCc4[nH]c5ccccc5c4C3)nc(-c3cncc(F)c3)nc12 [Compound I-61b, N-[(1R)-1-[2-(5-Fluoro-3-pyridyl)-4-[[(3R)-2,3,4,9-tetrahydro-1H-carbazol-3-yl]amino]pyrazolo[1,5-a][1,3,5]triazin-8-yl]ethyl]-4-methyl-piperazine-1-carboxamide]
9 | > 1.5 | CC(C)c1cnn2c(N[C@H]3Cc4[nH]cnc4NC3=O)nc(-c3cncc(F)c3)nc12 [Compound I-62a, (6S)-6-[[2-(5-Fluoro-3-pyridyl)-8-isopropyl-pyrazolo[1,5-a][1,3,5]triazin-4-yl]amino]-1,4,6,7-tetrahydroimidazo[4,5-b]pyridin-5-one]
10 | > 1.5 | CC(C)c1cnn2c(N[C@@H]3Cc4[nH]cnc4NC3=O)nc(-c3cncc(F)c3)nc12 [Compound I-62b, (6R)-6-[[2-(5-fluoro-3-pyridyl)-8-isopropyl-pyrazolo[1,5-a][1,3,5]triazin-4-yl]amino]-1,4,6,7-tetrahydroimidazo [4,5-b]pyridin-5-one]
11 | > 1.5 | CC(C)c1cnn2c(N[C@@H]3CCc4c(ccnc4N)C3)nc(-c3cncc(F)c3)nc12 [Compound I-63a, (6R)—N6-[2-(5-Fluoro-3-pyridyl)-8-isopropyl-pyrazolo[1,5-a][1,3,5]triazin-4-yl]-5,6,7,8-tetrahydroisoquinoline-1,6-diamine]
12 | > 1.5 | CC(C)c1cnn2c(N[C@H]3CCc4c(ccnc4N)C3)nc(-c3cncc(F)c3)nc12 [Compound I-63b, (6S)—N6-[2-(5-fluoro-3-pyridyl)-8-isopropyl-pyrazolo[1,5-a][1,3,5]triazin-4-yl]-5,6,7,8-tetrahydroisoquinoline-1,6-diamine]
13 | < 0.5 | COC[C@H](C)c1cnn2c(N[C@@H]3CCc4[nH]c5ccccc5c4C3)nc(-c3cncc(F)c3)nc12 [Compound I-64a, (3R)—N-[2-(5-Fluoro-3-pyridyl)-8-[(1R)-2-methoxy-1-methyl-ethyl]pyrazolo[1,5-a][1,3,5]triazin-4-yl]-2,3,4,9-tetrahydro-1H-carbazol-3-amine]
14 | < 0.5 | COC[C@@H](C)c1cnn2c(N[C@@H]3CCc4[nH]c5ccccc5c4C3)nc(-c3cncc(F)c3)nc12 [Compound I-64b, (3R)—N-[2-(5-fluoro-3-pyridyl)-8-[(1S)-2-methoxy-1-methyl-ethyl]pyrazolo[1,5-a][1,3,5]triazin-4-yl]-2,3,4,9-tetrahydro-1H-carbazol-3-amine]
15 | < 0.5 | COCC[C@H](C)c1cnn2c(N[C@@H]3CCc4[nH]c5ccccc5c4C3)nc(-c3cncc(F)c3)nc12 [Compound I-65a, (3R)—N-[2-(5-Fluoro-3-pyridyl)-8-[(1S)-3-methoxy-1-methyl-propyl]pyrazolo[1,5-a][1,3,5]triazin-4-yl]-2,3,4,9-tetrahydro-1H-carbazol-3-amine]
16 | < 0.5 | COCC[C@@H](C)c1cnn2c(N[C@@H]3CCc4[nH]c5ccccc5c4C3)nc(-c3cncc(F)c3)nc12 [Compound I-65b, (3R)—N-[2-(5-fluoro-3-pyridyl)-8-[(1R)-3-methoxy-1-methyl-propyl]pyrazolo[1,5-a][1,3,5]triazin-4-yl]-2,3,4,9-tetrahydro-1H-carbazol-3-amine]
17 | > 1.5 | CC(C)c1cnn2c(N[C@@H]3CCc4c(cc[nH]c4=O)C3)nc(-c3cncc(F)c3)nc12 [Compound I-66a, (6R)-6-[[2-(5-Fluoro-3-pyridyl)-8-isopropyl-pyrazolo[1,5-a][1,3,5]triazin-4-yl]amino]-5,6,7,8-tetrahydro-2H-isoquinolin-1-one]
18 | > 1.5 | CC(C)c1cnn2c(N[C@H]3CCc4c(cc[nH]c4=O)C3)nc(-c3cncc(F)c3)nc12 [Compound I-66b, (6S)-6-[[2-(5-fluoro-3-pyridyl)-8-isopropyl-pyrazolo[1,5-a][1,3,5]triazin-4-yl]amino]-5,6,7,8-tetrahydro-2H-isoquinolin-1-one]
